In patent US10144742B2 (Millennium Pharmaceuticals, Inc., priority 2014, dated 2018):
Where two headings read alike, the source gives them in different places.

Key:
PC3 cells = assay: PC3 growth inhibition (Cell-titer glo, 72 hours); assay type: cell-based; conditions: Homo sapiens, PC-3, PC3 cells, 72 hours, Cell-titer glo, read-out: Percent Inhibition (PC3 growth inhibition); for inhibition at 1 µM: compound concentration 1 μM; for inhibition at 1.667 µM: compound concentration 1.667 μM; for inhibition at 1.852 µM: compound concentration 1.852 μM
Method in brief: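 PC3 cells in RPMI1640 seeded overnight at 37 °C, 5% CO2, then exposed to compound diluted in AIM serum-free medium for 72 h. Viability by CellTiter-Glo luminescence vs DMSO controls; single-concentration % remaining viability (1 μM or 1.667 μM), or GI50/LD50 from curves.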

hNAMPT protein = hNAMPT protein (Homo sapiens (Human), UniProt P43490); assay: NAMPT enzyme assay (TR-FRET/HTRF, BodiPY ligand, anti 6His-Tb); assay type: binding; conditions: for IC50: NAMPT IC50 range class, read-out: IC50; for inhibition at 1 µM: read-out: Percent Inhibition
Method in brief: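 TR-FRET binding assay in which His-tagged human NAMPT with anti-6His-Tb is displaced by compound from a BodiPY ligand, incubated 1 h at rt in the dark. Excitation was at 320 nm, with the 520/486 nm emission ratio read. IC50 was fitted from inhibition relative to DMSO controls.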

Chain of hNAMPT protein (P43490 whole entry): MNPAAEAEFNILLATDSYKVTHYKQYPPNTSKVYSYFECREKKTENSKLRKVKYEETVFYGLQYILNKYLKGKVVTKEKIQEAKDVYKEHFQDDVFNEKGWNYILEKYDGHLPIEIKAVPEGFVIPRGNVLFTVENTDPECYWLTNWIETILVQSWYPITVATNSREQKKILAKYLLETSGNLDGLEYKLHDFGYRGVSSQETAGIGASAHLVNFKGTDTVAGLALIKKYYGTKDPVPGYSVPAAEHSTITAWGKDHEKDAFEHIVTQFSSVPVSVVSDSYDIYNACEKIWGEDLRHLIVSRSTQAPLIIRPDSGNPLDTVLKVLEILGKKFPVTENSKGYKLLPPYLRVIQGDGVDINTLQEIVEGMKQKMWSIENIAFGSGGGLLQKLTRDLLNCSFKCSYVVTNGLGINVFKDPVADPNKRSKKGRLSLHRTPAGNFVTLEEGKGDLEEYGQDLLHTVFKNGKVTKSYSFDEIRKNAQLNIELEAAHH

| SMILES | inhibition at 1 µM (PC3 cells) [%] | IC50 (hNAMPT protein) [nM] | inhibition at 1 µM (hNAMPT protein; compound concentration 1 μM) [%] | inhibition at 1.667 µM (PC3 cells) [%] | inhibition at 1 µM (hNAMPT protein) [%] | inhibition at 1.852 µM (PC3 cells) [%] |
| --- | --- | --- | --- | --- | --- | --- |
| N#Cc1ccccc1-c1nc2ccc(C(=O)NCCCn3ccnc3)cc2nc1-c1ccccc1 [Compound I-54, 2-(2-cyanophenyl)-N-[3-(1H-imidazol-1-yl)propyl]-3-phenylquinoxaline-6-carboxamide] | -7 | 500 to 1000 | 50 |  |  |  |
| COc1cccc(-c2nc3cc(C(=O)NCCCn4ccnc4)ccc3nc2N2CCOCC2)c1 [Compound I-55, N-[3-(1H-imidazol-1-yl)propyl]-3-(3-methoxyphenyl)-2-(morpholin-4-yl)quinoxaline-6-carboxamide] | -7 | < 100 | 102 |  |  |  |
| O=C(c1ccc2nc(-c3ccc(F)cc3)c(-c3ccc(F)cc3)nc2c1)N1CCn2ccnc2C1 [Compound I-56, [2,3-bis(4-fluorophenyl)quinoxalin-6-yl](5,6-dihydroimidazo[1,2-a]pyrazin-7(8H)-yl)methanone] | 104 | 2000 to 10000 | 33 |  |  |  |
| Cc1nccn1CCCNC(=O)c1ccc2nc(-c3ccc(F)cc3)c(-c3ccc(F)cc3)nc2c1 [Compound I-57, 2,3-bis(4-fluorophenyl)-N-[3-(2-methyl-1H-imidazol-1-yl)propyl]quinoxaline-6-carboxamide] | 45 | < 100 | 96 |  |  |  |
| CN(C)c1nc2ccc(C(=O)NCCc3cncn3C)cc2nc1-c1ccc(F)cc1 [Compound I-58, 2-(dimethylamino)-3-(4-fluorophenyl)-N-[2-(1-methyl-1H-imidazol-5-yl)ethyl]quinoxaline-6-carboxamide] |  | 500 to 1000 | 64 | 50 |  |  |
| COC1CN(c2nc3ccc(C(=O)NCCCn4ccnc4)cc3nc2-c2ccccc2)C1 [Compound I-59, N-[3-(1H-imidazol-1-yl)propyl]-2-(3-methoxyazetidin-1-yl)-3-phenylquinoxaline-6-carboxamide] | -6 | 1000 to 2000 | 49 |  |  |  |
| O=C(NCCCn1ccnc1)c1ccc2nc(-c3ccsc3)c(-c3ccccc3)nc2c1 [Compound I-60, N-[3-(1H-imidazol-1-yl)propyl]-3-phenyl-2-(3-thienyl)quinoxaline-6-carboxamide] | -4 | 500 to 1000 | 51 |  |  |  |
| O=C(NCCCn1ccnc1)c1ccc2nc(-c3cccc(OC(F)(F)F)c3)c(-c3ccccc3)nc2c1 [Compound I-61, N-[3-(1H-imidazol-1-yl)propyl]-3-phenyl-2-[3-(trifluoromethoxy)phenyl]quinoxaline-6-carboxamide] | -7 | 100 to 500 | 75 |  |  |  |
| O=C(NCCCn1ccnc1)c1ccc2nc(NCc3ccccc3)c(-c3ccccc3)nc2c1 [Compound I-62, 2-(benzylamino)-N-[3-(1H-imidazol-1-yl)propyl]-3-phenylquinoxaline-6-carboxamide] | -4 | 2000 to 10000 | 24 |  |  |  |
| CC(C)(C)OC(=O)NCc1ccc(-c2nc3cc(C(=O)NCCCn4ccnc4)ccc3nc2-c2ccccc2)cc1 [Compound I-63, tert-Butyl [4-(7-{[3-(1H-imidazol-1-yl)propyl]carbamoyl}-3-phenylquinoxalin-2-yl)benzyl]carbamate] | 25 | 2000 to 10000 |  |  | 17 |  |
| O=C(NCc1ccc2nccn2c1)c1ccc2nc(N3CCC(N4CCOCC4)CC3)c(-c3ccc(F)cc3)nc2c1 [Compound I-64, 3-(4-fluorophenyl)-N-(imidazo[1,2-a]pyridin-6-ylmethyl)-2-[4-(morpholin-4-yl)piperidin-1-yl]quinoxaline-6-carboxamide] |  | < 100 | 98 |  |  | 2 |
| O=C(NCCOc1cccnc1)c1ccc2nc(-c3ccc(F)cc3)c(-c3ccc(F)cc3)nc2c1 [Compound I-65, 2,3-bis(4-fluorophenyl)-N-[2-(pyridin-3-yloxy)ethyl]quinoxaline-6-carboxamide] |  | < 100 | 95 | 2 |  |  |
| CC(C)(C)OC(=O)N1CCN(C2CCN(c3nc4ccc(C(=O)NCCCn5ccnc5)cc4nc3-c3ccccc3)CC2)CC1 [Compound I-66, tert-butyl 4-[1-(6-{[3-(1H-imidazol-1-yl)propyl]carbamoyl}-3-phenylquinoxalin-2-yl)piperidin-4-yl]piperazine-1-carboxylate] | -1 | < 100 | 102 |  |  |  |
| COc1cccc(-c2nc3cc(C(=O)NCCc4cccnc4)ccc3nc2N2CCC(O)CC2)c1 [Compound I-67, 2-(4-hydroxypiperidin-1-yl)-3-(3-methoxyphenyl)-N-[2-(pyridin-3-yl)ethyl]quinoxaline-6-carboxamide] |  | < 100 | 96 | 2 |  |  |
| Cn1cc2c(n1)OCCN(C(=O)c1ccc3nc(-c4ccc(F)cc4)c(-c4ccc(F)cc4)nc3c1)C2 [Compound I-68, [2,3-bis(4-fluorophenyl)quinoxalin-6-yl](2-methyl-2,4,6,7-tetrahydro-5H-pyrazolo[4,3-f][1,4]oxazepin-5-yl)methanone] | 101 | 2000 to 10000 | 16 |  |  |  |
| O=C(NCCCn1ccnc1)c1ccc2nc(-c3ccccc3)c(-c3ccc4nccn4c3)nc2c1 [Compound I-69, N-[3-(1H-imidazol-1-yl)propyl]-3-(imidazo[1,2-a]pyridin-6-yl)-2-phenylquinoxaline-6-carboxamide] | 0 | 100 to 500 | 75 |  |  |  |
| COc1cccc(-c2nc3cc(C(=O)NCCCc4cccnc4)ccc3nc2N2CCC(N3CCOCC3)CC2)c1 [Compound I-70, 3-(3-methoxyphenyl)-2-[4-(morpholin-4-yl)piperidin-1-yl]-N-[3-(pyridin-3-yl)propyl]quinoxaline-6-carboxamide] |  | < 100 | > 99 | 2 |  |  |
| O=C(CCCn1ccnc1)Nc1ccc2nc(-c3ccc(F)cc3)c(-c3ccc(F)cc3)nc2c1 [Compound I-72, N-[2,3-Bis(4-fluorophenyl)quinoxalin-6-yl]-4-(1H-imidazol-1-yl)butanamide] | 2 | 1000 to 2000 | 46 |  |  |  |
| COc1cccc(-c2nc3cc(C(=O)NCCc4cccnc4)ccc3nc2Cl)c1 [Compound I-73, 2-Chloro-3-(3-methoxyphenyl)-N-[2-(pyridin-3-yl)ethyl]quinoxaline-6-carboxamide] |  | 1000 to 2000 | 13 |  |  | > 99 |
| CC(C)(C)OC(=O)NC1CCN(C2CCN(c3nc4ccc(C(=O)NCCCn5ccnc5)cc4nc3-c3ccccc3)CC2)CC1 [Compound I-74, tert-Butyl [1′-(6-{[3-(1H-imidazol-1-yl)propyl]carbamoyl}-3-phenylquinoxalin-2-yl)-1,4′-bipiperidin-4-yl]carbamate] | -2 | < 100 | 100 |  |  |  |
| O=C(c1ccc2nc(-c3ccc(F)cc3)c(-c3ccc(F)cc3)nc2c1)N1CCc2[nH]ccc2C1 [Compound I-75, [2,3-bis(4-fluorophenyl)quinoxalin-6-yl](1,4,6,7-tetrahydro-5H-pyrrolo[3,2-c]pyridin-5-yl)methanone] | 96 | 2000 to 10000 | 16 |  |  |  |
| O=C(NCc1ccccn1)c1ccc2nc(-c3ccccc3)c(-c3ccccc3)nc2c1 [Compound I-76, 2,3-diphenyl-N-(pyridin-2-ylmethyl)quinoxaline-6-carboxamide] | 92 | 2000 to 10000 | 29 |  |  |  |
| O=C(NCCCc1nccs1)c1ccc2nc(N3CCC(O)CC3)c(-c3ccc(F)cc3)nc2c1 [Compound I-77, 3-(4-Fluorophenyl)-2-(4-hydroxypiperidin-1-yl)-N-[3-(1,3-thiazol-2-yl)propyl]quinoxaline-6-carboxamide] |  | 100 to 500 | 86 | > 99 |  |  |
| COC1CCN(c2nc3ccc(C(=O)NCCCc4ncc[nH]4)cc3nc2-c2ccc(F)cc2)CC1 [Compound I-78, 3-(4-fluorophenyl)-N-[3-(1H-imidazol-2-yl)propyl]-2-(4-methoxypiperidin-1-yl)quinoxaline-6-carboxamide] |  | < 100 | > 99 | 2 |  |  |
| O=C(NCCCn1ccnc1)c1ccc2nc(-c3ccccc3)c(-c3ccc(Cl)cc3)nc2c1 [Compound I-79, 3-(4-chlorophenyl)-N-[3-(1H-imidazol-1-yl)propyl]-2-phenylquinoxaline-6-carboxamide] | -8 | < 100 | 93 |  |  |  |
| O=C(NCCCn1ccnc1)c1ccc2nc(Oc3ccccc3)c(-c3ccccc3)nc2c1 [Compound I-80, N-[3-(1H-Imidazol-1-yl)propyl]-2-phenoxy-3-phenylquinoxaline-6-carboxamide] | 1 | 500 to 1000 |  |  | 65 |  |
| CN1CCN(c2nc3ccc(C(=O)NCCCn4ccnc4)cc3nc2-c2ccccc2)CC1=O [Compound I-81, N-[3-(1H-imidazol-1-yl)propyl]-2-(4-methyl-3-oxopiperazin-1-yl)-3-phenylquinoxaline-6-carboxamide] | -7 | 500 to 1000 | 63 |  |  |  |
